Measured values reported in patent US10039761B2, “Co-crystals and pharmaceutical compositions comprising the same” (Vertex Pharmaceuticals Incorporated, priority 2013, dated 2018).
“Also recorded” adds a separate entry of the source.

Columns and labels:
[1] = test system: triple-negative breast cancer cell lines; assay: Doxorubicin/epirubicin combination, all breast cancer lines tested; type: cell-based; conditions: doxorubicin and Compound (2)
Protocol: The cell-based experiments and assays were performed with either molecule but not always with both. Compounds (1) and (2) were generally very similar in those assays and experiments. Analysis of the combination experiments was performed using two methods: the Bliss Additivity model and the Mixtures Blend method to determine the degree of synergy, additivity, or antagonism. In the Bliss method, a matrix of Bliss scores was generated for each cell line and treatment, and a sum of the Bliss values over the range of combination concentrations tested was calculated. […] Larger average Bliss values indicate greater confidence in reporting synergy, and smaller scores indicate greater confidence in reporting antagonism. In the Mixtures Blend method combinants were added in a range of optimal ratios using design of experiment (DOE) software (DX-8 from STAT-EASE); the cells were irradiated with 2 Gy as required. Synergy was determined using statistical analysis of the data (ANOVA) to indicate linear (additivity) or statistically significant (p<0.1) non-linear (antagonism or synergy) mixes of the combinants.

[2] = Body weight in OD26749 xenograft studies; type: in vivo, nude mice
Protocol: The in vivo efficacies of Compounds (1) and (2) in combination with whole body IR were examined in the OD26749 primary NSCLC (non-small cell lung cancer) and the OE-19 GEJ cell line xenograft models. In these studies, Compounds (1) and (2) were formulated with 16% captisol/1% PVP/1% HPMC E5 pH2.
The in vivo efficacy of Compound (1) was evaluated in the primary OD26749 NSCLC subcutaneous xenograft model. […] Efficacy was evaluated using a regimen in which 2-Gy whole body IR was administered twice, one week apart. Compound (1) was administered PO (tid at 0, 3, and 7 h) at 100 mg/kg alone or with a single 2 Gy dose of whole body IR at 3.25 h. Seven days later, the same regimens were repeated. Compound (1) in combination with 2 Gy whole body IR induced significant tumor regression (% T/Ti of −75; P<0.01) compared to IR alone.
The efficacies of Compounds (1) and (2) in combination with whole body IR (2 Gy) were evaluated in the OD26749 primary NSCLC xenograft model at a Compound (1) dose level of 100 mg/kg PO bid (0 and 4 h) and Compound (2) dose levels of 50 mg/kg and 100 mg/kg PO bid (0 and 4 h). Two cycles of whole body IR (2 Gy) were given 15 min after the first compound administration (0.25 hour). Control animals were administered vehicle PO bid (0 and 4 h). Two cycles of treatment were performed on Day 0 and Day 7.

A549 = assay: Combination with genotoxic agents, cell viability (Mixtures Blend); type: cell-based; set-up: key to Synergy or Antagonism, Plus Radiation (2 Gy): Plus = enhanced effect of radiation; *: Viability reduction driven predominantly by Compound (1) plus radiation
Protocol: (§1) The cell-based experiments and assays were performed with either molecule but not always with both. Compounds (1) and (2) were generally very similar in those assays and experiments. Analysis of the combination experiments was performed using two methods: the Bliss Additivity model and the Mixtures Blend method to determine the degree of synergy, additivity, or antagonism. In the Bliss method, a matrix of Bliss scores was generated for each cell line and treatment, and a sum of the Bliss values over the range of combination concentrations tested was calculated. […] Larger average Bliss values indicate greater confidence in reporting synergy, and smaller scores indicate greater confidence in reporting antagonism. In the Mixtures Blend method combinants were added in a range of optimal ratios using design of experiment (DOE) software (DX-8 from STAT-EASE); the cells were irradiated with 2 Gy as required. Synergy was determined using statistical analysis of the data (ANOVA) to indicate linear (additivity) or statistically significant (p<0.1) non-linear (antagonism or synergy) mixes of the combinants. The following SOC agents were tested in double combinations with Compound (1): etoposide (a topoisomerase inhibitor that induces DSBs), cisplatin (DNA cross-linker), carboplatin (DNA cross-linker), fluorouracil (5-FU, antimetabolite that inhibits thymidylate synthase), paclitaxel (mitotic inhibitor that binds to tubulin), cetuximab (EGFR monoclonal antibody), and radiation. […] These findings were confirmed using the Bliss Additivity model (Table 21). […] While there is not total agreement in the various lines tested, (as detailed in the other sections) the majority agree and the conclusions arrived at are common to each. […] The cancer cell lines in Table 19 indicate: ESO26-gastroesophageal junction cancer, OE19-gastroesophageal junction cancer, […]549-lung cancer, colo205-colon cancer, H460-lung cancer, H2009-lung cancer, FaDu-pharynx cancer, Miapaca2-pancreatic cancer, HFL1-human fetal lung fibroblast.

FaDu = assay: as above; type: cell-based; set-up: key to Synergy or Antagonism, Plus Radiation (2 Gy): Plus = enhanced effect of radiation; *: Viability reduction driven predominantly by Compound (1) plus radiation
Protocol: as §1

H2009 = assay: as above; type: cell-based; set-up: key to Synergy or Antagonism, Plus Radiation (2 Gy): Plus = enhanced effect of radiation; *: Viability reduction driven predominantly by Compound (1) plus radiation; conditions: no agent ticked
Protocol: as §1

H460 = assay: as above; type: cell-based; set-up: key to Synergy or Antagonism, Plus Radiation (2 Gy): Plus = enhanced effect of radiation; *: Viability reduction driven predominantly by Compound (1) plus radiation; conditions: no agent ticked
Protocol: as §1

With `[2H]c1nc(C)nc([2H])c1-c1cc(NC[C@@H](C)c2cccc3c(C(=O)NC)ccnc23)ncn1` [Compound (2), (S)-N-methyl-8-(1-((2′-methyl-4′,6′-dideutero-[4,5′-bipyrimidin]-6-yl)amino)propan-2-yl)quinoline-4-carboxamide] the “shift in IC50 of the combination compared to doxorubicin alone” value [1] was greater than 3 fold.

For `CNC(=O)c1ccnc2c([C@H](C)CNc3cc(-c4cnc(C)nc4)ncn3)cccc12` [Compound (1), (S)-N-methyl-8-(1-((2′-methyl-[4,5′-bipyrimidin]-6-yl)amino)propan-2-yl)quinoline-4-carboxamide], the “Max. body wt loss (%)” value ([2]; PO 25 mg/kg bid (0, 4 h), 2 Gy IR ([…]) q7dx2, Day 8) was −7.70%, the “Max. body wt loss (%)” value ([2]; PO 50 mg/kg bid (0, 4 h), 2 Gy IR ([…]) q7dx2, Day 8) was −5.50% and the “Max. body wt loss (%)” value ([2]; PO 100 mg/kg bid (0, 4 h), 2 Gy IR ([…]) q7dx2, Day 8) was −3.70%. For the same compound, the “Max. body wt loss (%)” value ([2]; PO 100 mg/kg tid (0, 3, 7 h) q7dx2, no IR) was “weight gain”, the “Max. body wt loss (%)” value ([2]; PO 100 mg/kg tid (0, 3, 7 h) qdx1, 2 Gy qdx1 (3.25 h), Day 2) was −9.70% and the “Max. body wt loss (%)” value ([2]; PO 100 mg/kg tid (0, 3, 7 h) qdx1, no IR, Day 2) was −2.40%. For the same compound, the “Max. body wt loss (%)” value ([2]; PO 200 mg/kg qd, 2 Gy IR ([…]) q7dx2, Day 1) was −6.10%, the “Synergy or Antagonism, No Radiation” value (A549; no agent ticked) was “Synergy” and the “Synergy or Antagonism, Plus Radiation (2 Gy)” value (“Synergy or Antagonism … (2 Gy)” below) (A549; no agent ticked) was “Plus”. For the same compound, the “Synergy or Antagonism, No Radiation” value (A549; with Cetuximab) was “Additivity”, the “Synergy or Antagonism … (2 Gy)” value (A549; with Cetuximab) was “Additivity, Plus” and the “Synergy or Antagonism, No Radiation” value (A549; with Cisplatin) was “Additivity”. The “Synergy or Antagonism, No Radiation” value (A549; with Cisplatin and Etoposide) was “Strong Synergy”, the “Synergy or Antagonism … (2 Gy)” value (A549; with Cisplatin and Etoposide) was “Strong Synergy, Plus” and the “Synergy or Antagonism, No Radiation” value (A549; with Cisplatin and Paclitaxel) was “additive; also recorded: Additivity”. The “Synergy or Antagonism … (2 Gy)” value (A549; with Cisplatin and Paclitaxel) was “Synergy, Plus”, the “Synergy or Antagonism, No Radiation” value (A549; with Etoposide) was “Strong Synergy” and the “Synergy or Antagonism, No Radiation” value (A549; with Paclitaxel) was “Antagonism”. For the same compound, the “Synergy or Antagonism, No Radiation” value (FaDu; no agent ticked) was “Synergy”, the “Synergy or Antagonism … (2 Gy)” value (FaDu; no agent ticked) was “Plus” and the “Synergy or Antagonism, No Radiation” value (FaDu; with Cetuximab) was “Additivity”. The “Synergy or Antagonism … (2 Gy)” value (FaDu; with Cetuximab) was “Additivity, Plus”, the “Synergy or Antagonism, No Radiation” value (H2009) was “Additivity” and the “Synergy or Antagonism … (2 Gy)” value (H2009) was “Plus”. For the same compound, the “Synergy or Antagonism, No Radiation” value (H460) was “Synergy” and the “Synergy or Antagonism … (2 Gy)” value (H460) was “Plus”.
